Laboratory results published in PMC5768343, “A natural inhibitor of kidney-type glutaminase: a withanolide from Physalis pubescens with potent anti-tumor activity” (Oncotarget, 2017).

Tests used:
[1] = tested on: glutamine metabolism in SW1990 cells; assay: Intracellular metabolite levels and NADPH/NADP+, SW1990; assay type: cell-based, human; conditions: SW1990, 2.5 or 5 μM, 4 hours
Protocol: (§1) Blocking glutamine metabolism can inhibit the growth and proliferation of glutamine-dependent cells, mainly because of blocking the production and utilization of glutamine metabolites. The effects of different concentrations of physapubescin K on the intracellular glutamine and its downstream metabolites were examined. […] And the same effect could also be seen in Hcc827-ER cells (Figure 7C).
(§2) NADPH/NADP^+ ratio was determined by using NADP^+/NADPH Quantification Colorimetric Kit (BioVision, #K347-100). The abundance of intracellular glutamine (KeyGen, Nanjing, China A124), glutamate (KeyGen, Nanjing, China A074), (BioVision, #K778), aspartate (BioVision, #K552), oxaloacetate (BioVision, #K659) and malate (BioVision, #K637) was determined by using quantification kits, according the manufacturer’s instruction. Briefly, 5 × 10^6 cells (10-cm dishes) were collected during log-phase growth by cell scraper, homogenized in 0.2 mL of provided buffers (on ice), and centrifuged at 4°C for 10 min at 13,000 g. Supernatants were deproteinized using 10 K Ultrafiltration tube (Millipore, USA), analyzed and compared to standard curves. The signals obtained were normalized to the protein concentration calculated upon processing a parallel 10-cm dish.

SW1990 cells [2] = assay: Flow cytometric analysis for apoptosis (Annexin V/PI); assay type: cell-based, human; conditions: SW1990, 24 h
Protocol: SW1990 cells were cultured in six-well plates and treated with different concentrations of physapubescin K for 24 h. Then the cells were harvested, washed twice with ice-cold PBS, and mixed in 100 μL of 1× binding buffer (10 mM HEPES/ NaOH, pH 7.4, 140 mM NaCl, 2.5 mM CaCl2). After incubating with Annexin-V and PI staining liquid (Nanjing KeyGen Biotech. Inc.) for 15 min at room temperature, the cells were examined by flow cytometry (BD Biosciences, FACSCalibur).

SW1990 cells [3] = assay: EdU and DAPI double staining proliferation assay, SW1990; assay type: cell-based, human; conditions: 5 μM
Protocol: The logarithmic growth phase cells were seeded in 24-well plates at 2 × 10^4 ∼ 5 × 10^5 cells per well. After 4–6 h, the medium was removed, the medium containing no or different concentrations of compound was replaced, and 50 μM of EdU was added. 2 h later, the medium was removed, cells washed by PBS. 200 μL of cell fixative (i.e., PBS containing 4% paraformaldehyde) was added and incubated at room temperature for 30 minutes. The solution was discarded and 200 μL of 2 mg/mL glycine was added to each well. After 5 minutes of incubation, the glycine solution was discarded. Each well washed with 200 μL of PBS, rinse for 5 minutes, and PBS was removed. Apollo staining was added to each well with 200 μL of 1 X Apollo® staining solution. After incubation for 30 minutes at room temperature and decolorization, the reaction solution was discarded. Similarly, 200 μL of 1 × Hoechst 33342 solution was added to each well to dye the total DNA. After 30 minutes of incubation at room temperature and the reaction solution was discarded, and then the images were captured and analyzed by fluorescence microscopy.

[4] = tested on: human fibrosarcoma cells (HT1080); assay: CCK8 cytotoxicity assay, HT1080; assay type: cell-based; conditions: HT-1080, CCK8, 48 h
Protocol: (§3) The SW1990, HT1080, and A375-S2 human tumor cell lines were obtained from ATCC (Manassas, VA, USA). […] SW1990, HT1080, and LO2 cells were cultured in DMEM medium with 10% fetal bovine serum (FBS). All of these cells were cultured at 37°C in a humidified atmosphere with 5% CO2. To estimate cell viability, cells (5000/well) were separately seeded in 96-well plates for 24 h at 37°C in a 5% CO2 incubator. […] All the experiments were performed in triplicate, and the mean absorbance values were calculated. The IC50 values of the compounds were derived from the mean OD values of the triplicate tests versus the drug concentration curves.

KGA (recombinant cKGA) = biological target: T1, KGA (recombinant cKGA) (Homo sapiens, UniProt O94925); assay: Microscale thermophoresis (MST) binding assay; conditions: labeled KGA 200 nM, 26°C
T1 construct: human KGA (cKGA) encoding amino acids 221–553 was cloned into pET26b vector; His tag (C); made in house; host or cells: E. coli BL21 (DE3)-RIL-Codon plus
T1 sequence (O94925 221-553): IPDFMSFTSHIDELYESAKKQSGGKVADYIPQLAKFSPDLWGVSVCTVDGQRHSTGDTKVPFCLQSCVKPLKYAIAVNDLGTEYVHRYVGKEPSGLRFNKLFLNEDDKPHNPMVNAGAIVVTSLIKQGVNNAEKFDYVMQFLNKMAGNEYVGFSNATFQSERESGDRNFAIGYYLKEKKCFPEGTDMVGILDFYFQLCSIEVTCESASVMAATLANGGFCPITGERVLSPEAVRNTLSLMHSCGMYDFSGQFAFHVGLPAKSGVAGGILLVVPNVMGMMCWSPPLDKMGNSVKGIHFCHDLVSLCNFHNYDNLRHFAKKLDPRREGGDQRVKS
From the text: Specific details were referenced to our previous work.

[5] = tested on: human normal liver cell LO2; assay: CCK8 cytotoxicity / proliferation assay, LO2; assay type: cell-based; conditions: CCK8, 48 h
Protocol: The experiment was performed in triplicate.

[6] = tested on: glutamine metabolism in T47D cells; assay: Intracellular metabolite levels, T47D; assay type: cell-based, human; conditions: 2.5 or 5 μM, 4 hours
Protocol: as §1, §2

SW1990 xenograft = SW1990 xenograft mouse model; assay type: in vivo; conditions: 5 mg/kg intraperitoneal injection daily, P < 0.01, dose-dependent
Protocol: All animal experiments were performed in accordance with the Guide for the Care and Use of Laboratory Animals of Tongji Medical College, Huazhong University of Science and Technology and approved by the Ethics Committee. CB-17/ SCID mice (male, 4 weeks old) were purchased from Beijing HFK Bioscience CO., LTD (Beijing, China). SW1990 cells were inoculated subcutaneously (3 × 10^6 cells) into the left flank of each mouse. Six days later, mice were randomly divided into […] and were injected i.p. daily for 16 days with one of the following treatments: (1) natural saline group (n = 10); (2) 5 mg/Kg physapubescin K (n = 10); (3) 10 mg/Kg physapubescin K (n = 10). The dose volume was 0.1 mL/10 g body weight, and the weights of mice were recorded every day. Meanwhile, the tumor volumes were measured with vernier calipers and calculated by the following formula: (A × B2)/2, where A was length and B was width of the two-dimension tumor. After animals were sacrificed, tumor weights were measured. The inhibition ratio (%) was calculated using the following equation: I% = 100% × [Wtumor (vehicle) − Wtumor (treated)]/Wtumor (vehicle)

[7] = tested on: human pancreatic cancer cells (SW1990); assay: CCK8 cytotoxicity / proliferation assay, SW1990; conditions: for relative cell vitality: CCK8
Protocol: as §3
Cell proliferation was assessed by incubating them with Cell Counting Kit-8 reagents (Dojindo, Shanghai, China) for 24 h, 48 h, 72 h, 96 h at 37°C and measuring the absorbance at 450 nm. The experiment was performed in triplicate.

For `CO[C@H]1O[C@@H]([C@@H](C)[C@H]2C[C@H](OC(C)=O)[C@H]3[C@@H]4C[C@H]5O[C@]56[C@@H](O)C=CC(=O)[C@]6(C)[C@H]4CC[C@@]32C)C[C@]2(C)O[C@]12C` [physapubescin K], the consumption of glutamine [1] was “significantly reduce”, the “production of glutamic acid and its downstream metabolites (oxaloacetic acid, aspartic acid, malic acid)” value [1] was “decrease” and the “proportion of NADPH/NADP+” value [1] was “significantly reduced”. For the same compound, the apoptosis (SW1990 cells [2]) was “induce apoptosis”, the proliferated cell ratio (SW1990 cells [3]) was “close to zero” and the IC50 [4] was 2850 ± 600 nM. For the same compound, the Kd (KGA (recombinant cKGA)) was 3030 ± 380 nM, the IC50 [5] was 11700 ± 320 nM and the “effects on glutamine metabolism” value [6] was “moderate effects”. The “growth of the tumor” value (SW1990 xenograft) was “significantly inhibit the growth of the tumor”, the IC50 ([7]; Homo sapiens, SW1990, 48 h, read-out: IC50 SW1990) was 2210 ± 10 nM and the “sensitivity of cell growth to treatment” value ([7]; SW1990, 1 μM) was “sensitive”. For the same compound, the relative cell vitality ([7]; SW1990, 2 μM, 24 h) was 50.3%, the relative cell vitality ([7]; SW1990, 2 μM, 36 h) was 37.6% and the relative cell vitality ([7]; SW1990, 2 μM, 48 h) was 27.3%. For the same compound, the cell proliferation ([7]; SW1990, 2 μM, alleviated by addition of 4 mM glutamate) was “significantly inhibited cell proliferation”.
